Reference: PubChem BioAssay AID1035470 (Broad Institute, 2014)
Records with an inconclusive call do not appear. Calls of active or inactive are those of the source.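 Rule for the calls: active = compound lowering the normal-ribosome reporter at least twice as much as the humanized-ribosome reporter, growth loss under a set limit; inconclusive = no clear call, values can overlap the other calls; inactive = the rest.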

System: E. coli WT-GFP vs G2058-humanized RFP, fluorescence, 24 h
Assay: E. coli strain growth, wild-type against G2058 humanized RFP mutant – G2058 mutant RFP vs wild-type GFP, cherry-pick, two tests, dose response (AID 1035470)
[1] = E. coli WT-GFP vs G2058-humanized RFP mixed culture, total growth OD600, 24 h
[2] = measured here: G2058 humanized mutant RFP growth

`C=CCn1c(C)cc(C(=O)COC(=O)CNC(=O)c2ccccc2)c1C` was tested, and the AC50 was > 100 µM (inactive).
`O=C(NCCO)c1cc2c([nH]c3ccccc32)c(-c2ccccc2)n1` was tested, and the AC50 was > 100 µM (inactive), the AC50 [1] was over 100 µM and the AC50 [2] was over 100 µM.
In the case of `CC(C)CNC(=O)c1cccc(NC(=O)C(C)Oc2ccccc2)c1` (configuration not stated), the AC50 was > 100 µM (inactive).
In the case of `CCN(CC)S(=O)(=O)c1cc(NC(=O)C(C)N2CCN(Cc3ccc4c(c3)OCO4)CC2)ccc1C` (configuration not stated), the AC50 was > 100 µM (inactive) and the AC50 [2] was over 100 µM.
`CC1Cc2ccccc2N1C(=O)CN1C(=O)NC(C)(CCc2ccccc2)C1=O` (configuration not stated) gave an AC50 [1] of over 100 µM.
In the case of `CC1(C(=O)NS(=O)(=O)c2cccc(Cl)c2)CCN1C(=O)C1(c2ccc(Cl)cc2)CCC1` (configuration not stated), the AC50 was > 100 µM (inactive).
For `O=C(COC(=O)C1CC2C=CC1C2)Nc1ccc([N+](=O)[O-])cc1` (configuration not stated), the AC50 [1] was over 100 µM and the AC50 [2] was over 100 µM.
For `N#Cc1cccc(-c2ccc3c(c2)[C@H]2[C@H](CCN2C(=O)c2ccccc2F)[C@H](CO)N3)c1`, the AC50 was > 100 µM (inactive).
With `Cc1nn2c(NCc3ccccn3)cc(C(C)C)nc2c1-c1ccccc1` the AC50 [1] was over 100 µM.
In the case of `CCOC(=O)C1(CCCc2ccccc2)CCN(C(=O)CCn2cncn2)CC1`, the AC50 was > 100 µM (inactive).
For `CCN(CC)c1nc(Oc2ccc(C(=O)OC)cc2)nc(N2CCOCC2)n1`, the AC50 was > 100 µM (inactive).
For `Cc1nc(N2CCC(C)CC2)c(C#N)c(C)c1[N+](=O)[O-]`, the AC50 was > 100 µM (inactive).
For `O=[N+]([O-])c1cncc([N+](=O)[O-])c1Nc1cccc(O)c1`, the AC50 was > 100 µM (inactive) and the AC50 [1] was over 100 µM.
In the case of `COc1ccc2nc(SCC(=O)Nc3ccccc3)[nH]c2c1`, the AC50 was > 100 µM (inactive).
In the case of `CCC1(C(=O)OC)CCc2c(cc(OC)c3ccccc23)C1=O` (configuration not stated), the AC50 was > 100 µM (inactive).
In the case of `CCCCNC(=O)c1onc(CSc2cc(C)cc(C)c2)c1C(=O)O`, the AC50 was > 100 µM (inactive) and the AC50 [1] was 37.3 µM.
In the case of `CN(Cc1nnc(-c2ccc(F)cc2)o1)c1ccccc1`, the AC50 was > 100 µM (inactive) and the AC50 [1] was over 100 µM.
For `COC(=O)c1ccc(C(=O)Nc2ccc3nc(-c4ccncc4)[nH]c3c2)cc1`, the AC50 was > 100 µM (inactive) and the AC50 [1] was over 100 µM.
With `COc1ccc(NC(=O)Nc2cccc3c2O[C@@H](CN(C)S(=O)(=O)c2ccc(Cl)cc2)[C@@H](C)CN([C@@H](C)CO)C3=O)cc1` the AC50 was > 100 µM (inactive).
In the case of `CCOc1ccc(S(=O)(=O)N(C)c2ccc(OCC(=O)NCc3cccnc3)cc2)cc1`, the AC50 was > 100 µM (inactive) and the AC50 [1] was over 100 µM.
`CC1CCCN(c2ccc(C(=O)NCCc3ccccc3)cn2)C1` (configuration not stated) was tested, and the AC50 was > 100 µM (inactive).
`Cc1cccc(NC(=O)c2nc(S(=O)(=O)Cc3ccccc3)ncc2Cl)c1` was tested, and the AC50 [1] was over 100 µM.
With `CCOc1ccc2nc(N(CCN(C)C)C(=O)c3ccc4ccccc4c3)sc2c1` the AC50 was > 100 µM (inactive).
With `Cc1cccc(-c2ccc([C@H]3[C@@H](CO)N4CCCCN(S(=O)(=O)c5ccccc5C)C[C@H]34)cc2)c1` the AC50 [1] was over 100 µM.
With `N#Cc1ccc(OCC(=O)N2CCN(S(=O)(=O)c3ccc(Cl)s3)CC2)cc1` the AC50 was > 100 µM (inactive).
For `CCC(=O)Nc1nc2ccc(NC(=O)c3cc(OC)c(OC)c(OC)c3)cc2s1`, the AC50 was > 100 µM (inactive).
`Nc1ccccc1Sc1ccc(C(F)(F)F)cc1[N+](=O)[O-]` was tested, and the AC50 was > 100 µM (inactive), the AC50 [1] was over 100 µM and the AC50 [2] was over 100 µM.
For `Cc1cccc(NC(=O)c2sc3nc(-c4ccccc4)cn3c2C)n1`, the AC50 was > 100 µM (inactive) and the AC50 [1] was over 100 µM.
`COC(=O)c1ccsc1NC(=O)c1cccc(OC)c1` was tested, and the AC50 [2] was 5.79 µM.
With `Cc1nc(SCC(=O)Nc2ccc3c(c2)OCCO3)nc(C)c1C` the AC50 was > 100 µM (inactive) and the AC50 [1] was 46.5 µM.
In the case of `Cc1ccc(S(=O)(=O)N2CC(=O)Nc3ccccc32)cc1C`, the AC50 was > 100 µM (inactive) and the AC50 [1] was over 100 µM.
For `COc1cc(OC)cc(C(=O)Nc2ccc(C(=O)Nc3ccccc3OC)cc2)c1`, the AC50 was > 100 µM (inactive) and the AC50 [1] was over 100 µM.
Work on `CC(C)(C)N(Cc1ccccc1)C(=O)COC(=O)Cn1cnc2ccccc2c1=O` yielded an AC50 [1] of over 100 µM.
For `COc1ccc(NC(=O)CSc2n[nH]c(-c3ccncc3)n2)c([N+](=O)[O-])c1`, the AC50 [1] was over 100 µM.
For `Cc1cc(C)c(OCCN(C)Cc2ccccc2)c(Br)c1`, the AC50 [1] was over 100 µM.
Work on `COc1cc(NC(=O)c2ccc(Cl)cc2)c(OC)cc1NC(=O)CN1CCCCC1` yielded an AC50 [1] of over 100 µM.
For `NC(=O)c1ccsc1NC(=O)COC(=O)CSc1ccc(Cl)cc1`, the AC50 was > 100 µM (inactive) and the AC50 [1] was over 100 µM.
`CC(CCc1ccccc1)NC(=O)CCC1CCCC1` (configuration not stated) was tested, and the AC50 [1] was over 100 µM.
Compound `C=CCN(c1ccccc1)S(=O)(=O)c1ccc(Cl)c(C(=O)OCC(=O)NCCCN2CCCC2=O)c1` has an AC50 [1] of over 100 µM.
With `COc1ccc(Cn2c(=O)c3[nH]cnc3n(-c3ccc(C)cc3)c2=O)cc1` the AC50 was > 100 µM (inactive) and the AC50 [1] was over 100 µM.
For `O=C(Nc1cccc(Cl)c1)N1C[C@@H]2[C@H](c3ccccc31)[C@H](CO)N2Cc1ccncc1`, the AC50 was > 100 µM (inactive) and the AC50 [1] was over 100 µM.
`COc1ccc(OC)c(-c2nn(-c3ccccc3)cc2C(=O)N2CCc3ccccc3C2)c1` showed an AC50 [1] of over 100 µM.
For `CCOC(=O)c1ccc(CC(=O)c2oc3cc(O)ccc3c2C)o1`, the AC50 was > 100 µM (inactive).
In the case of `Nc1[nH]c(C(=O)c2ccccc2)c(-c2ccc(Br)cc2)c1C(=O)c1cccs1`, the AC50 was > 100 µM (inactive) and the AC50 [1] was over 100 µM.
With `CN1CCN(c2nc(Nc3ccc(O)cc3)nc3ccccc23)CC1` the AC50 was > 100 µM (inactive) and the AC50 [1] was over 100 µM.
`Cc1cc(C(=O)Nc2cccc3c2O[C@H](CN(C)S(=O)(=O)c2ccc(Cl)cc2)[C@H](C)CN([C@H](C)CO)C3=O)n(C)n1` was tested, and the AC50 was > 100 µM (inactive) and the AC50 [2] was 32.9 µM.
`O=C(COC(=O)C1CC1)Nc1nc(-c2ccc(F)c(F)c2)cs1` was tested, and the AC50 [1] was over 100 µM.
`Cc1cccc(-c2ccc([C@H]3[C@H](CO)N4CCCCN(S(=O)(=O)c5ccccc5C)C[C@@H]34)cc2)c1` was tested, and the AC50 was > 100 µM (inactive) and the AC50 [1] was over 100 µM.
`CC(C)(C)NC(=O)C(c1ccncc1)N(Cc1ccc(F)cc1)C(=O)c1ccc(-c2ccccc2)[nH]1` (configuration not stated) was tested, and the AC50 [1] was over 100 µM.
For `O=C(NC1CCCC(C(F)(F)F)C1)c1ccc([N+](=O)[O-])o1` (configuration not stated), the AC50 was > 100 µM (inactive).
For `O=C(Nc1cscc1S(=O)(=O)c1ccccc1)c1ccccc1Cl`, the AC50 was > 100 µM (inactive).
`O=C(CSc1ccc(-c2cccnc2)nn1)N1CCCc2ccccc21` was tested, and the AC50 was > 100 µM (inactive).
`COc1ccccc1N1CCN(Cc2ccc(OC)c3ccccc23)CC1` was tested, and the AC50 [1] was over 100 µM.
In the case of `Nc1ccccc1C#CC(=O)c1ccccc1`, the AC50 [1] was 49 µM.
With `OC(COc1ccc(Cl)cc1)CN1CCN(c2ccccn2)CC1` (configuration not stated) the AC50 was > 100 µM (inactive).
For `COc1ccc(CNC(=O)c2nc(S(=O)(=O)Cc3ccccc3)ncc2Cl)cc1`, the AC50 was > 100 µM (inactive).
In the case of `CN(CCOc1ccccc1)C(=O)c1ccc(OC2CCN(C(=O)C3CC3)CC2)cc1`, the AC50 was > 100 µM (inactive) and the AC50 [1] was over 100 µM.
Compound `Cc1onc(-c2ccccc2Cl)c1C(=O)Nc1ccc(Cl)cn1` has an AC50 [1] of over 100 µM.
For `CCn1nc(C(=O)OCc2cccc(S(=O)(=O)N(C)C)c2)c2ccccc2c1=O`, the AC50 was > 100 µM (inactive).
For `COc1ccc(-n2c(-c3ccc(C)cc3)nc3ccccc3c2=O)cc1`, the AC50 was > 100 µM (inactive).
Compound `CCOCCCNC(=O)C(NC(=O)c1ccccc1O)c1ccc(C)cc1` (configuration not stated) has an AC50 [1] of over 100 µM.
`CC1CCCC(NC(=O)COC(=O)Cc2c[nH]c3ccccc23)C1C` (configuration not stated) was tested, and the AC50 was > 100 µM (inactive) and the AC50 [1] was over 100 µM.
In the case of `Nc1c(C(=O)NCCN2CCOCC2)c2nc3ccccc3nc2n1Cc1ccccc1`, the AC50 was > 100 µM (inactive).
With `COc1cccc(CNC(=O)CCSCc2ccccc2F)c1` the AC50 was > 100 µM (inactive) and the AC50 [2] was over 100 µM.
`COc1ccc(NC(=O)Nc2cccc3c2O[C@H](CN(C)S(=O)(=O)c2ccc(Cl)cc2)[C@@H](C)CN([C@H](C)CO)C3=O)cc1` was tested, and the AC50 was > 100 µM (inactive).
`Cc1ccccc1-n1nnnc1SCCCC(=O)c1ccc(F)cc1` gave an AC50 [2] of over 100 µM.
For `C(=C/c1nccc2c1[nH]c1ccccc12)/c1ccc2c(c1)OCO2`, the AC50 [2] was over 100 µM.
`COC(=O)C1CCN(C(=O)c2ccc(OC)c(S(=O)(=O)N3CCCc4ccccc43)c2)CC1` was tested, and the AC50 was > 100 µM (inactive).
In the case of `O=S(=O)(NC1c2cccc3cccc(c23)C1Sc1ncccn1)c1ccccc1` (configuration not stated), the AC50 was > 100 µM (inactive) and the AC50 [1] was 3.21 µM.
`COCC(C)NC(=O)c1nn(Cc2ccccc2)c(=O)c2ccccc12` (configuration not stated) showed an AC50 [1] of over 100 µM.
In the case of `O=C(NCc1ccc2c(c1)OCO2)c1sccc1Br`, the AC50 was > 100 µM (inactive) and the AC50 [1] was over 100 µM.
In the case of `Cc1ccc(S(=O)(=O)N2CCOCC2)cc1NC(=O)COc1ccc(-c2nnco2)cc1`, the AC50 was > 100 µM (inactive).
With `COc1ccc(N(CCC(=O)O)S(=O)(=O)c2ccc(C)cc2C)cc1` the AC50 was > 100 µM (inactive) and the AC50 [1] was over 100 µM.
`O=S(=O)(NOCc1ccc(Cl)cc1)c1ccc(Cl)cc1` showed an AC50 [1] of over 100 µM.
`Cc1cccc(SCC(=O)Nc2ccccc2[N+](=O)[O-])c1` was tested, and the AC50 was > 100 µM (inactive) and the AC50 [1] was over 100 µM.
In the case of `Cc1cc2nc(SCC(=O)O)nc(C)c2cc1C`, the AC50 was > 100 µM (inactive) and the AC50 [1] was over 100 µM.
`CCn1c(COc2cccc(OC)c2)nnc1SCC(=O)Nc1cc(OC)ccc1OC` gave an AC50 [2] of 19.4 µM.
With `COc1ccccc1-c1cc2nc(NCCc3ccncc3)ccn2n1` the AC50 was > 100 µM (inactive) and the AC50 [1] was over 100 µM.
`Cc1ccc(NS(=O)(=O)c2ccc3c(c2)CCC(=O)N3)cc1C` was tested, and the AC50 was > 100 µM (inactive) and the AC50 [1] was over 100 µM.
`O=C(NCc1ccccc1Cl)c1ccc2c(c1)SC1=NS(=O)(=O)CCN12` was tested, and the AC50 was > 100 µM (inactive) and the AC50 [1] was over 100 µM.
For `CCN(CC)CC(=O)Nc1sc2c(c1C(=O)c1ccccc1OC)CCC2`, the AC50 was > 100 µM (inactive).
With `CCCN1C(=O)C(O)(c2c(C)[nH]c3ccccc23)c2ccccc21` (configuration not stated) the AC50 [1] was over 100 µM.
In the case of `CCN(CC)CCN(C(=O)c1ccc2c(c1)OCCO2)c1nc2c(Cl)cccc2s1`, the AC50 was > 100 µM (inactive).
Compound `Cc1ccc(-c2c[n+](CC(=O)Nc3ccccc3)c3n2CCC3)cc1` has an AC50 [2] of over 100 µM.
With `N#Cc1ccc(C(=O)Nc2ccn(-c3ccccc3)n2)cc1` the AC50 was > 100 µM (inactive).
`COCCn1c(SCC(=O)Nc2ccccc2OC)nc2ccccc21` was tested, and the AC50 was > 100 µM (inactive).
With `NS(=O)(=O)c1ccc(Nc2c([N+](=O)[O-])cncc2[N+](=O)[O-])cc1` the AC50 was > 100 µM (inactive).
With `COC(=O)c1ccc2nc(-c3cccc(Br)c3)c(Cc3ccsc3)n2c1` the AC50 was > 100 µM (inactive) and the AC50 [2] was over 100 µM.
